According to PMC7614683, “A small molecule PI3Kα activator for cardioprotection and neuroregeneration” (Nature, 2023):

Key:
[1] = system: PI3Kα-WT MEFs; assay: Cell cycle progression by EdU staining, PI3Kα-WT MEFs; assay type: cell-based, mouse; details: 24h; BYL719 as co-treatment with 1938
Protocol: The Click-IT EdU protocol was used according to manufacturer instructions (Sigma-Aldrich #BCK-FC488-50). Briefly, MEFs were seeded at 50,000 cells per well in 6-well plates in DMEM supplemented with 10% FBS and 1% P/S, and allowed to attach overnight. The next day, cells were serum-starved for 5 h prior to compound addition for 24 h in fresh serum-free DMEM. Cells were then pulsed for 3 h with 10 μM EdU, followed by collection by trypsinization and fixation with 3.7% FA in PBS for 15 min in the dark, washed in 3% BSA and permeabilized in 1x saponin-based permeabilization buffer for 20 min in the dark. EdU was then detected using the FAM-azide assay cocktail for 30 min in the dark. Cells were washed twice in 1x saponin-based permeabilization buffer followed by analysis with flow cytometer (Novocyte Advanteon flow cytometer, Agilent). Gating strategy for flow cytometry is shown in Supplementary Fig. 2.

[2] = system: PI3Kα-WT MEFs; assay: Mass spectrometry-based phosphoproteomics, PI3Kα-WT MEFs; assay type: cell-based, mouse; details: for number of differentially phosphorylated peptides/sites relative to DMSO: 1938 5 μM or insulin 100 nM
Protocol: PI3Kα-WT and PI3Kα-KO MEFs, grown in 15 cm dishes, were serum-starved overnight in DMEM with 1% penicillin-streptomycin and stimulated by the addition of 0.05% DMSO, 5 μM 1938 in final 0.05% DMSO or 100 nM insulin (Sigma #I5016) for 15 min or 4 h. Cells were lysed in 500 μl urea lysis buffer [50 mM triethylammonium bicarbonate, 8 M urea, cOmplete™ EDTA-free protease inhibitor cocktail (1:50 dilution) (Roche #11873580001), 1 PhosSTOP tablet (Roche #4906845001) per 10 ml of lysis buffer, 1 mM sodium orthovanadate] and lysates sonicated until clear for ~10 min with cooling breaks on ice. Protein concentration was measured using a BCA protein assay (Pierce #23227). 300 μg of protein was reduced with 5 mM Tris(2-carboxyethyl)phosphine hydrochloride (Sigma #C4706) at 37°C for 20 min and alkylated using 10 mM 2-chloroacetamide (Sigma #22790) for 20 min at room temperature in the dark. Proteins were digested with LysC (#129-02541; FUJIFILM Wako Chemicals, Osaka, Japan) for 3.5 h at 30°C. Samples were then diluted with 50 mM triethylammonium bicarbonate (Sigma #T7408) to reduce the urea concentration to 1.5 M, followed by an overnight peptide digestion with trypsin (Promega #V5113) at 37°C. Digest reactions were quenched by the addition of 10% trifluoroacetic acid (EMD Millipore #302031-M) to a final pH of 2.0. Sample desalting was performed using 35-350 μg C18 columns (HMM S18V; The Nest Group, Inc., Southborough, MA, USA) according to the manufacturer’ specifications. TiO2 (Hichrome Titansphere TiO2, 10 μm capacity, 100 mg, GL Sciences #5020-75010) was used for phosphoenrichment. Following peptide loading onto TiO2, the beads were sequentially washed with 1 M glycolic acid (Sigma #124737)/80% acetonitrile/5% trifluoroacetic acid, followed by 80% acetonitrile/0.2% trifluoroacetic acid and 20% acetonitrile before elution with 5% ammonium hydroxide. Enriched samples were desalted using 7-70 μg C18 columns (HUM S18V; The Nest Group, Inc., Southborough, MA, USA) according to the manufacturer’s specifications. Dried phosphopeptide samples were stored at -80°C and resuspended in 10% formic acid immediately prior to analysis. nLC-MS/MS was performed on a Q-Exactive Orbitrap Plus interfaced to a NANOSPRAY FLEX ion source and coupled to an Easy-nLC 1000 (Thermo Scientific). Fifty percent of each sample was analysed as 10 μl injections. Peptides were separated on a 27 cm fused silica emitter, 75 μm diameter, packed in-house with Reprosil-Pur 200 C18-AQ, 2.4 μm resin (Dr. Maisch, Ammerbuch-Entringen, Germany) using a linear gradient from 5% to 30% acetonitrile/0.1% formic acid over 180 min, at a flow rate of 250 nl/min. Peptides were ionised by electrospray ionisation using 1.9 kV applied immediately prior to the analytical column via a microtee built into the nanospray source with the ion transfer tube heated to 320°C and the S-lens set to 60%. Precursor ions were measured in a data-dependent mode in the orbitrap analyser at a resolution of 70,000 and a target value of 3e6 ions. The ten most intense ions from each MS1 scan were isolated, fragmented in the HCD cell, and measured in the Orbitrap at a resolution of 17,500.
Raw data were analysed with MaxQuant[72] (version 1.5.5.1) where they were searched against the mouse UniProt database (http://www.uniprot.org/, downloaded 04/12/2018) using default settings. Carbamidomethylation of cysteines was set as fixed modification, and oxidation of methionines, acetylation at protein N-termini, phosphorylation (on S, T or Y) were set as variable modifications. Enzyme specificity was set to trypsin with maximally 2 missed cleavages allowed. To ensure high confidence identifications, peptide-spectral matches, peptides, and proteins were filtered at a less than 1% false discovery rate (FDR). Label-free quantification in MaxQuant was used with a LFQ minimum ratio count of 2, Fast LFQ selected and the ‘skip normalisation’ option selected. […]

[3] = system: PI3Kα-WT MEFs; assay: Cell number by crystal violet staining, PI3Kα-WT MEFs; assay type: cell-based, mouse; details: 24h
Protocol: MEFs were seeded at 5000 cells per well in 96-well plates in DMEM supplemented with 10% FBS and 1% P/S, and allowed to attach overnight. The next day, cells were serum-starved for 5 h prior to compound addition in fresh serum-free DMEM. After different time points, cells were rapidly washed with distilled H2O before fixed and stained in a solution of 0.5% crystal violet (Sigma-Aldrich #C0775) in 20% methanol (v:v) as described. Briefly, after 20 min incubation at room temperature on a rocking platform, fixed and stained cells were washed 3 times with distilled H2O and plates air-dried overnight. 200 μl methanol was next added to each well and the plates were incubated at room temperature for 20 min on a bench rocker, followed by measurement of optical density at 570 with a plate reader.

[4] = system: A549 cells; assay: Phosphoinositide quantification by mass spectrometry, A549; assay type: cell-based, human; details: A549, 2 min
Protocol: A549 cells (5.10^5) or wild-type MEFs (3.10^5) were plated in complete media onto 3.5 cm dishes or 60 mm dishes respectively for 24 h, prior to FCS-free starvation media for 16 h. MEFs, in addition, were supplemented with arachidonic acid in the FCS-free starvation media as previously described. […] Reactions were terminated in 600 μl ice-cold 1 M HCl and cells scraped and resuspended, then divided into two equal samples in eppendorfs. […] The data are shown as response ratios, calculated by normalizing the multiple reaction monitoring (MRM)-targeted lipid integrated response area to that of a known amount of relevant internal standard. To account for any cell input variability, PIP3 response ratios were normalized to C38:4-PI response ratios; while PI(3,4)P2 response ratios were normalised to PI(4,5)P2 response ratios. Data shown are mean ±SD for n ≥3, except for non-DMSO control in MEF PIP3 measurements where n=1.

Compound	cell cycle progression (EdU incorporation) [1]	number of differentially phosphorylated peptides/sites relative to DMSO ([2]; 15 min)	number of differentially phosphorylated peptides/sites relative to DMSO ([2]; 4h)	log2FC, PI3Ka WT 4 h 1938 vs PI3Ka WT DMSO ([2]; phosphosite Cask_S544)	log2FC, PI3Ka WT 15’ 1938 vs PI3Ka WT DMSO ([2]; phosphosite Cask_S545)	log2FC, PI3Ka WT 4 h 1938 vs PI3Ka WT DMSO ([2]; phosphosite Cask_S545)	log2FC, PI3Ka WT 15’ 1938 vs PI3Ka WT DMSO ([2]; phosphosite Gm42715_S1683)	log2FC, PI3Ka WT 4 h 1938 vs PI3Ka WT DMSO ([2]; phosphosite Gm42715_S1683)	cell number (crystal violet staining) [3]	concentration at which the PIP3 response maxed out [4] [µM]	log2FC, PI3Ka WT 15’ Insulin vs PI3Ka WT DMSO ([2]; phosphosite Cask_S545)	log2FC, PI3Ka WT 4 h Insulin vs PI3Ka WT DMSO ([2]; phosphosite Cask_S545)	log2FC, PI3Ka WT 15’ Insulin vs PI3Ka WT DMSO ([2]; phosphosite Gm42715_S1683)	log2FC, PI3Ka WT 4 h Insulin vs PI3Ka WT DMSO ([2]; phosphosite Gm42715_S1683)	PIP3 response [4]
CCN1CCN(c2ccc(Nc3cc(Nc4cccc5c4N(C(C)=O)CC5)ccn3)cc2)CC1 [Compound 1938]	induced cell cycle progression	27	50	Inf	-0.1674	-0.01008	1.032	0.9181	increase in cell number	10	–	–	–	–	–
insulin: insulin, canonical activator of PI3Kα, used as positive control	did not induce cell cycle progression	11	18	–	–	–	–	–	did not induce cell cycle progression and an increase in cell number	–	-0.06497	-0.07238	0.5546	1.083	strong PIP3 response
